Series [1] deals with S. aureus ATCC 25923. The series can be described thus: Disk diffusion test. Type of series: cell-based, Staphylococcus aureus. An excerpt: (§1) Strain representatives of six globally spread clones/lineages of MRSA were used in this study to test the antimicrobial activity of the N,O-acetal derivatives against MRSA: NY/Japan-USA100/ST5-SCCmecII (strain CR15-071), USA300/ST8-SCCmecIV (strain USA300-0114), USA400/ST1-SCCmecIV (strain USA400-0051), Brazilian epidemic clone-BEC/ST239-SCCmecIII (strain BMB9393), pediatric clone-USA800/ST5-SCCmecIV (strain USA800-0179), and OSPC-USA1100/ST30-SCCmecIV (strain 07-040). The S. aureus ATCC 25923 was used as a control for the experiment of drug susceptibility. […] For biofilm production, tryptic soy broth (TSB; BD, Franklin Lakes, NJ, USA) was supplemented with 1% (w/v) glucose (TSB-Glu). Tryptic soy agar (TSA; BD) was used for bacterial growth. The Mueller-Hinton broth (MHB; BD) and Mueller-Hinton agar (MHA; BD) was used for susceptibility tests. All strains were maintained in 10% (v/v) glycerol stocks and stored at − 80 °C.
(§2) The antibacterial activity of 6a and its derivatives 7a, 7b, and 7c was tested as previously described using paper disks impregnated with each compound[13]. The derivatives were also analyzed quantitatively using microdilution assays in 96-well inert polystyrene microtiter plates (Nuclon; Nalge Nunc International, Rochester, NY, USA) to determine the minimal inhibitory concentration (MIC)[14]. Biological control, as well as growth conditions, were performed following CLSI recommendation[15],[16]. […] Controls were also performed using 2% (v/v) DMSO only.

Series [2] concerns MRSA ST5-SCCmecII (USA100). The series can be described thus: Disk diffusion test. The format is cell-based, Staphylococcus aureus.
Another series can be described thus: Hemocompatibility assay. To be noted: human, pH 7.4. Here is the method:
(§3) Erythrocytes were collected from three human volunteers in a citrate tube and washed three times (3×) with PBS (pH 7.4). All derivatives were incubated with the PBS-erythrocyte suspension for 3 h at 37 °C. The hemolysis with the release of hemoglobin was quantified by the spectrophotometric reading of the supernatant at 545 nm. Hemolysis less than 10% represented hemocompatibility and non-toxicity against erythrocyte membranes. For the positive control, the human erythrocytes were lysed with 1% (v/v) Triton X-100. The negative control was performed with 1% (v/v) DMSO only (final concentration). […] All methods were carried out in accordance with relevant guidelines and regulations. In addition, informed consent was obtained from all volunteers. Three independent experiments were performed in triplicate.

A short description of another series: Cytotoxicity assay (MTT). The note with it: African green monkey, Vero cell monolayers. As to the method:
(§4) Plates were incubated for 1 h, the supernatant again removed, and 200 µL dimethyl sulfoxide (DMSO) were added to each well to dissolve the formazan crystals for 10 min. Absorbance was measured at 570 nm using an ELISA reader (Thermo Plate, TP-READER, Thermo Fisher Scientific). […] The selectivity index (SI) was calculated as follows: SI (µg/mL) = CC50/MIC[17]. Three independent experiments were performed in triplicate. Controls were performed using 2% (v/v) DMSO only.

The next series has as its system MRSA BEC (BMB9393). Briefly: microbe, parasite or virus in culture. Type of series: cell-based, Staphylococcus aureus. As to the method: (§5) For biofilm production, tryptic soy broth (TSB; BD, Franklin Lakes, NJ, USA) was supplemented with 1% (w/v) glucose (TSB-Glu). Tryptic soy agar (TSA; BD) was used for bacterial growth. The Mueller-Hinton broth (MHB; BD) and Mueller-Hinton agar (MHA; BD) was used for susceptibility tests. All strains were maintained in 10% (v/v) glycerol stocks and stored at − 80 °C.
(§6) The derivatives were also analyzed quantitatively using microdilution assays in 96-well inert polystyrene microtiter plates (Nuclon; Nalge Nunc International, Rochester, NY, USA) to determine the minimal inhibitory concentration (MIC)[14]. Biological control, as well as growth conditions, were performed following CLSI recommendation[15],[16]. […] Controls were also performed using 2% (v/v) DMSO only.

In series [3] the test system is S. aureus ATCC 25923. The series can be described thus: MIC, broth microdilution. The format is cell-based, Staphylococcus aureus.
Source text: as §1, §2

The test system of series [4] is MRSA Pediatric-USA800 (USA800-0179). Briefly: MIC, broth microdilution. Type of series: cell-based, Staphylococcus aureus. As to the method: as §5, §6
Series [5] deals with MRSA USA300 (USA300-0114). Briefly: MIC, broth microdilution. Type of series: cell-based, Staphylococcus aureus. Here is the method: as §5, §6
The test system of series [6] is MRSA NY/Japan-USA100 (CR15-071). The series can be described thus: MIC, broth microdilution. Type of series: cell-based, Staphylococcus aureus. As to the method: as §5, §6
Series [7] deals with MRSA USA400 (USA400-0051). Briefly: MIC, broth microdilution. The format is cell-based, Staphylococcus aureus. As to the method: as §5, §6
Series [8] has as its system MRSA OSPC-USA1100 (07-040). Briefly: MIC, broth microdilution. Type of series: cell-based, Staphylococcus aureus. Here is the method:
as §5, §6

Series [9] has as its system MRSA ST5-SCCmecIV (USA800). The series can be described thus: Disk diffusion test. The format is cell-based, Staphylococcus aureus.
The test system of series [10] is MRSA (ST1-SCCmecIV) (USA400). The series can be described thus: Disk diffusion test. The format is cell-based, Staphylococcus aureus.
In series [11] the test system is MRSA ST30-SCCmecIV (USA1100). Briefly: Disk diffusion test. Type of series: cell-based, Staphylococcus aureus.
In series [12] the test system is MRSA ST239-SCCmecIII (BMB9393). Briefly: Disk diffusion test. Type of series: cell-based, Staphylococcus aureus.
Series [13] deals with MRSA ST8-SCCmecIV (USA300). The series can be described thus: Disk diffusion test. The format is cell-based, Staphylococcus aureus.
Series [14] deals with MRSA strain BMB9393 biofilm. Briefly: Biofilm development on polystyrene, crystal violet. The format is cell-based, Staphylococcus aureus. The note with it: 1/4MIC (6a 32 µg/mL, 7a 64 µg/mL, vancomycin 0.5 µg/mL); strain BMB9393. As to the method: Biofilms were formed on polystyrene surfaces using the BEC representative, strain BMB9393. […] The same volume of the bacterial culture in TSB-Glu (37 °C/18 h; at 250 rpm) diluted 1/100 in the same broth was added to the wells. After incubation (37 °C/24 h), supernatants were gently removed, rinsed with distilled water, and treated with crystal violet solution as described. […] Eight independent tests with three replicates each were performed. Controls were inoculated with the same bacterial inoculum but using only TSB-Glu with 2% (v/v) DMSO, final concentration.

The subject of a further series is human erythrocytes. The series can be described thus: Hemocompatibility assay. To be noted: highest concentration evaluated (300 µg/mL), 3 h at 37 °C. As to the method: as §3
The next series relates to Vero cell line. The series can be described thus: Cytotoxicity assay (MTT). The note with it: Vero cells, 24 h, MTT. Here is the method:
as §4

In series [15] the test system is MRSA strain CR15-071 (USA100) cells persistent to vancomycin. Briefly: Vancomycin-persistent cells, high bacterial load on TSA plates. Type of series: cell-based, Staphylococcus aureus. To be noted: vancomycin alone, 4MIC (8 µg/mL) plates, high inoculum. As to the method:
For this test, we choose the MRSA strain CR15-071 representative of the ST5-SCCmecII lineage (NY/Japan-USA100 clone), since this MRSA has replaced the ST239-SCCmecIII (the Brazilian clone) in this country, and is now the most frequent MRSA lineage in Brazilian hospitals. […]. The plates were incubated at 37 °C/24 h before being examined. […]. Bacterial growth was determined by removing persistent cells from the plates and determining UFC/ml. Controls were also performed using 2% (v/v) DMSO only. Three independent experiments were performed in triplicate.

The mark [16] stands for this setting: Table 2, used for SI, strain not given, values of 6a-7c equal those for BEC (BMB9393).

Each structure is given as a SMILES string. In brackets after ≈: the same amount, converted by molar mass. Read-outs that look alike come from different tables or passages of the source.

Consider `NC1=CC(=O)c2ccccc2C1=O` [6a, 2-amino-1,4-naphthoquinone], for which the Inhibition zone in the series with S. aureus ATCC 25923 [1] was 9±1.4 mm; in series [2] it was 9±1.0 mm; in [9] it was 8±1.0 mm; in [10], 8±1.2 mm; in series [11], 10±0.5 mm; in [12] it was 8±2.0 mm. In series [13], the Inhibition zone worked out at 9±1.0 mm. The same compound gave a hemolysis at 3 h, 300 µg/mL in the series “Hemocompatibility assay” (human erythrocyte suspension) of 3 ± 0.9%. This compound also displayed a CC50 at 24 h in “Cytotoxicity assay (MTT)” of 97.3 ± 3.12 µg/mL (≈ 562 µM). Further, the MIC against MRSA BEC (BMB9393) (Staphylococcus aureus, MRSA) stood at 128 µg/mL (≈ 739 µM); in the series on MRSA BEC (BMB9393) (setting [16]), 128 µg/mL (≈ 739 µM); in the series with S. aureus ATCC 25923 [3] (Staphylococcus aureus, ATCC25923, control strain S. aureus ATCC 25923, read-out: MIC) it was 32 µg/mL (≈ 185 µM); in series [4] (Staphylococcus aureus), 128 µg/mL (≈ 739 µM); in series [5] (Staphylococcus aureus) it was 256 µg/mL (≈ 1480 µM); in series [6] (Staphylococcus aureus) it was 256 µg/mL (≈ 1480 µM). The MIC in series [7] (Staphylococcus aureus) was 128 µg/mL (≈ 739 µM); in series [8] (Staphylococcus aureus, MRSA) it was 256 µg/mL (≈ 1480 µM). The “Effect on biofilm development” value in series [14] is listed as “much less effective at reducing biofilm development compared with 7b or 7c”.
On to `COCNC1=CC(=O)c2ccccc2C1=O` [7a, 2-(methoxymethyl)-amino-1,4-naphthoquinone], for which the Inhibition zone in the series with S. aureus ATCC 25923 [1] is listed as 9.7±2.0 mm; in [2], 12±1.0 mm; in [9], 12±1.0 mm; in series [10] it was 13±2.0 mm; in [11] it was 13±1.0 mm; in series [12], 10±1.5 mm. In [13], the Inhibition zone was found to be 14±1.0 mm. Further, the “Hemolysis, maximum values” in the series on human erythrocytes is recorded as 3.10 ± 0.1%. In addition, the CC50 in the series with Vero cell line is given as 155.28 ± 1.03 µg/mL (≈ 715 µM). Moreover, the MIC was found to be 256 µg/mL (≈ 1180 µM) with MRSA BEC (BMB9393) (setting [16]); 256 µg/mL (≈ 1180 µM) with MRSA BEC (BMB9393) (broth microdilution, BEC (BMB9393)); 128 µg/mL (≈ 589 µM) in the series with S. aureus ATCC 25923 [3] (control strain S. aureus ATCC 25923); 256 µg/mL (≈ 1180 µM) in series [4] (broth microdilution, Pediatric-USA800 (USA800-0179)); 128 µg/mL (≈ 589 µM) in series [5] (broth microdilution, USA300 (USA300-0114)); 256 µg/mL (≈ 1180 µM) in [6] (broth microdilution, NY/Japan-USA100 (CR15-071)). Also, the MIC in series [7] (broth microdilution, USA400 (USA400-0051)) is given as 128 µg/mL (≈ 589 µM); in [8] (broth microdilution, OSPC-USA1100 (07-040)) it was 256 µg/mL (≈ 1180 µM). Further, in [14], the “Effect on biofilm development” value was “much less effective at reducing biofilm development compared with 7b or 7c”.
`CN[C@H](CC(C)C)C(=O)N[C@H]1C(=O)N[C@@H](CC(N)=O)C(=O)N[C@H]2C(=O)N[C@H]3C(=O)N[C@H](C(=O)N[C@H](C(=O)O)c4cc(O)cc(O)c4-c4cc3ccc4O)[C@H](O)c3ccc(c(Cl)c3)Oc3cc2cc(c3O[C@@H]2O[C@H](CO)[C@@H](O)[C@H](O)[C@H]2O[C@H]2C[C@](C)(N)[C@H](O)[C@H](C)O2)Oc2ccc(cc2Cl)[C@H]1O` [Vancomycin, vancomycin, reference compound]: the Inhibition zone is 13±1.0 mm in the series with S. aureus ATCC 25923 [1]; 16±1.5 mm in series [2]; 17±1.5 mm in [9]; 16±2.0 mm in series [10]; 16±1.5 mm in series [11]; 14±1.0 mm in series [12]. The Inhibition zone in [13] was 17±1.0 mm. In series [15], the Refractory/persistent cells recovered was 4.5 × 10^8 CFU/mL. In “Hemocompatibility assay”, this compound yielded a hemolysis at 3 h of 3.6 ± 0.8%. Besides, the “Effect on biofilm development” value in series [14] is listed as “not able to reduce biofilm development”.

Values taken from article PMC7661526, “Antibiofilm effects of N,O-acetals derived from 2-amino-1,4-naphthoquinone are associated with downregulation of important global virulence regulators in methicillin-resistant Staphylococcus aureus” (Scientific Reports, 2020).
